Experimental data taken from patent publication US9486536B2 (Immunomedics, Inc., priority 2013, dated 2016).

Legend:
CEACAM5 = molecular target: T1, CEACAM5 (Homo sapiens, UniProt P06731); assay: antibody binding to target antigen after conjugation
T1 sequence (P06731 35-676): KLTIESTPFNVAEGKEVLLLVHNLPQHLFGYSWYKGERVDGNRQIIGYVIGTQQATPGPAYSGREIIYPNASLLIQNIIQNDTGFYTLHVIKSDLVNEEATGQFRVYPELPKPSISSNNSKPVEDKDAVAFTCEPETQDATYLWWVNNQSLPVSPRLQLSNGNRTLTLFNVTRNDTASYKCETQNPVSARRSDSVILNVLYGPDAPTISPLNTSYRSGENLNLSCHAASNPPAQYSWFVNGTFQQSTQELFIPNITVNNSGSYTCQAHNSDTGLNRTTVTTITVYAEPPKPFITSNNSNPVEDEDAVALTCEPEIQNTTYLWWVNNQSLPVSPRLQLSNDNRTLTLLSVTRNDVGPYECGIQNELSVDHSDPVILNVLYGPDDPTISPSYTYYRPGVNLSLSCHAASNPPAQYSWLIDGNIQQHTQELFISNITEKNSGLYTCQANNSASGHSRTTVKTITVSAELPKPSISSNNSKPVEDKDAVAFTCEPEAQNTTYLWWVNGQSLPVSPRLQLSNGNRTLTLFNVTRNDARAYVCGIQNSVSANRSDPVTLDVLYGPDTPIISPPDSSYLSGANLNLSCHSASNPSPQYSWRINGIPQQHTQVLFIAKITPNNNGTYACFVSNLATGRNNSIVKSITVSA
Method: Retention of antibody binding was confirmed by cell binding assays comparing binding of the conjugate to unconjugated antibody (Chari, 2008, Acc Chem Res 41:98-107). The potency of the conjugate was tested in a 4-day MTS assay using appropriate target cells.

[1] = molecular target: DDD of the RII form of PKA; settings: cited from earlier work
[2] = test system: NCI-N87 human gastric carcinoma xenografts; assay: therapy of NCI-N87 xenografts in nude mice; format: in vivo; settings: for therapeutic response (FIG. 3): 2.25 mg/kg protein dose twice weekly×2 weeks, compared with hMN-14 conjugate; for effect on tumors, one treatment cycle: 4×45 μg
Method: FIG. 3A. Therapy in nude mice bearing s.c. human tumor xenografts using 2.25 mg/kg protein dose (0.064 mg/kg of drug dose) of MAb-P2PDox conjugates twice weekly×2 weeks in nude mice (n=7) with NCI-N87 human gastric carcinoma xenografts.
Tumor size was determined by caliper measurements of length (L) and width (W) with tumor volume calculated as (L×W^2)/2. Tumors were measured and mice weighed twice a week. Mice were euthanized if their tumors reached >1 cm^3 in size, lost greater than 15% of their starting body weight, or otherwise became moribund. Statistical analysis for the tumor growth data was based on area under the curve (AUC) and survival time. Profiles of individual tumor growth were obtained through linear curve modeling. An f-test was employed to determine equality of variance between groups prior to statistical analysis of growth curves. A two-tailed t-test was used to assess statistical significance between all the various treatment groups and non-specific controls. For the saline control analysis a one-tailed t-test was used to assess significance. Survival studies were analyzed using Kaplan-Meier plots (log-rank analysis), using the Prism GraphPad Software (v4.03) software package (Advanced Graphics Software, Inc.; Encinitas, Calif.). All doses in preclinical experiments are expressed in antibody amounts. In terms of drug, 100 μg of antibody (5 mg/kg) in a 20-g mouse, for example, carries 1.4 μg-2.8 μg ([…]) of P2PDox equivalent dose when using an ADC with 3-6 drugs/IgG.
Using this dosing regimen, we examined the therapeutic effect of hRS7-P2PDox in 2 human tumor xenograft models, Capan-1 (pancreatic cancer) and NCI-N87 (gastric cancer). Therapy began 7 days after tumor transplantation in nude mice.
Anti-TROP-2 antibody conjugate, hRS7-P2PDox, was evaluated in nude mice bearing NCI-N87 human gastric cancer xenografts by administering a single bolus protein dose of 9 mg/kg, 6.75 mg/kg, 4.5 mg/kg, 2.25 mg/kg, or 1 mg/kg. The therapy was started when the mean tumor volume (mTV) was 0.256 cm^3.
Further in vivo efficacy studies were performed in nude mice implanted with NCI-N87 human gastric cancer xenografts (FIG. 13A-F).
The effect of varying dosage schedule on anti-tumor efficacy was examined (FIG. 14, FIG. 19A-G). The experiment began 9 days after tumor implantation when mean tumor volume for all groups was 0.383 cm^3, and ended on day 93 (84 days after initiation of therapy).

[3] = test system: Chronic Lymphocytic Leukemia (CLL); assay: treatment of CLL patients; format: in vivo, human
Method: Patients with previously untreated or relapsed CLL receive 4 doses of 70, 100 or 150 mg P2PDox-veltuzumab injected i.v. every two weeks. Only occasional mild to moderate transient injection reactions are seen and no other safety issues are observed, except for neutropenia, which can be controlled by interrupting therapy until improved or administering a G-CSF leukocyte stimulator, as per conventional practice. […] Objective responses are observed at all dose levels of P2PDox-veltuzumab, but with particularly high responses of 30% (mostly partial responses) at the highest dose. All serum samples evaluated for human anti-veltuzumab antibody (HAHA) are negative.

[4] = test system: Capan-1 human pancreatic adenocarcinoma xenografts; assay: therapy of Capan-1 xenografts in nude mice; format: in vivo; settings: for therapeutic response (FIG. 2): 2.25 mg/kg protein dose twice weekly×2 weeks, compared with hMN-14 conjugate
Method: FIG. 2. Therapy in nude mice bearing s.c. human tumor xenografts using 2.25 mg/kg protein dose (0.064 mg/kg of drug dose) of MAb-P2PDox conjugates twice weekly×2 weeks in nude mice with Capan-1 human pancreatic adenocarcinoma xenografts (n=5).
Tumors were measured and mice weighed twice a week.
At 63 days after Capan-1 tumor injection (with therapy starting at 1 days post-innoculation), 0 of 10 mice were alive in the saline control, 10 of 10 mice were alive in mice treated twice weekly×2 weeks with 45 μg of hPAM4-P2PDox, 2 of 10 mice were alive in mice treated twice weekly×2 weeks with 45 μg of hA20-P2PDox, 0 of 10 mice were alive in mice treated twice weekly×4 weeks with 250 μg of hPAM4-SN-38, and 0 of 10 mice were alive in mice treated twice weekly×4 weeks with 250 μg of h20-SN-38.

[5] = MTD study of hLL1 conjugates in mice
Method: The MTD of multiple injections, at a schedule of every four days for a total of four injections (q4dx4) was then determined, using protein doses between 25 μg to 150 μg per injection. At these doses, a cumulative dose of between 100 and 600 μg was given to the animals.

[6] = test system: HIV-1IIIB/MuLV infected splenocytes; assay: HIV-1/MuLV infected cell challenge in mice; format: in vivo; settings: doses of 100-200 μg
Method: P4/D10-P2PDox is tested in vitro for its efficacy in eliminating HIV-1-infected cells among non-infected cells and in a mouse model by removing HIV-1/MuLV (murine leukemia virus) infected syngeneic cells from the intraperitoneal cavity.
A human T-cell line, CEM-1B, with a genetically integrated MuLV genome is infected with HIV-1IIIB, which leads to the production of pseudoviruses with the HIV-1 genome and the MuLV envelope (Adang et al., PNAS USA 1999, 96:12749-753; Hinkula et al., Cells Tissues Organs 2004, 177:169-184). These virus supernatants are used to infect splenocytes from C57B1/6×DBA F1 K^b/d mice transgenic for HLA-A201. Isogenic mice are challenged with HIV-1IIIB/MuLV infected splenocytes i.p. and are immediately given conjugated antibodies or free antibodies i.p. Ten days after challenge, mice are sacrificed and peritoneal cells collected. Peritoneal cells are pelleted and added to 1×10^6 HIV susceptible Jurkat T-cells or human PBMC grown in 24-well plates. From these secondary cultures, supernatant is removed and fresh medium added every 3-4 days. The amount of infectious HIV recovered in the supernatant is measured for 3 weeks by p24 ELISA.
To test the efficacy of P4/D10-P2PDox in vivo, mice are given isogeneic HIV/MuLV-infected cells together with conjugates intraperitoneally.

[7] = test system: Capan-1, BxPC-3 and AsPC-1 human pancreatic tumor lines and AGS, NCI-N87 and LS147T human gastric and colonic tumor lines; assay: cytotoxicity of P2PDox-mAb conjugates to target cells; format: cell-based; settings: not shown
Description: The cytotoxicity of P2PDox-mAb conjugates to target cells was examined. hRS7-P2PDox and hMN-15-P2PDox were cytotoxic to MDA-MB-468, AG S, NCI-N87 and Capan-1 solid tumor cell lines (not shown). hMN-14-P2PDox was cytotoxic to Capan-1, BxPC-3 and AsPC-1 human pancreatic tumor lines and AGS, NCI-N87 and LS147T human gastric and colonic tumor lines (not shown). hLL2-P2PDOx was cytotoxic to Daudi, Raji, Ramos and JVM-3 hematopoietic tumor lines (not shown). IC50 values for the conjugates were in the nanomolar concentration range (not shown).

[8] = test system: Trop-2-positive human pancreatic adenocarcinoma cell line (BxPC-3); assay: ADCC with PBMCs, effector to target ratio 100:1; format: cell-based; settings: 33.3 nM
Method: The ADCC activity of various hRS7-ADC conjugates was determined in comparison to hRS7 IgG (FIG. 17). PBMCs were purified from blood purchased from the Blood Center of New Jersey. A Trop-2-positive human pancreatic adenocarcinoma cell line (BxPC-3) was used as the target cell line with an effector to target ratio of 100:1. ADCC mediated by hRS7 IgG was compared to hRS7-Pro-2-PDox, hRS7-CL2A-SN-38, and the reduced and capped hRS7-NEM. All were used at 33.3 nM.

[9] = test system: metastatic ductal adenocarcinoma of the pancreas; assay: treatment of a patient with metastatic pancreatic cancer; format: in vivo, human
Method: A person with metastatic ductal adenocarcinoma of the pancreas, who has relapsed after prior therapies with FOLFIRINOX followed by Nab-taxol (Abraxane®) plus gemcitabine is given PAM4-P2PDox ADC at a dose of 120 mg every other week for 4 courses, and after a 3-week delay, another course of 2 injections 2 weeks apart are given intravenously.

[10] = twice weekly×2 weeks with 45 μg

Molecule: P2PDox-hMN-24: P2PDox conjugate printed as hMN-24 (anti-CEACAM5)
- effect of conjugation on antibody binding (CEACAM5): lack of effect of conjugation on antibody binding to target antigen

Molecule: QIEYLAKQIVDNAIQQA [AKAP-IS]
- Kd ([1]; read-out: binding constant for DDD): 0.4 nM

Molecule: QIEYVAKQIVDYAIHQA [SuperAKAP-IS]
- selectivity for the RII isoform of PKA compared with the RI isoform [1]: five order of magnitude higher selectivity

Molecule: hA20-P2PDox
- therapeutic response (FIG. 3) [2]: ineffective
- effect on tumors, one treatment cycle [2]: little effect on tumor progression
- effect on survival ([2]; same dosage schedules (45 μg q4dx4, 90 μg weekly×2, 180 μg single)): no effect on survival
- objective responses at the highest dose ([3]; 150 mg i.v. every two weeks, 4 doses, mostly partial responses): 30%
- B-cell and CLL ablation ([3]; all dosage levels): Rapid B-cell and CLL ablation
- human anti-veltuzumab antibody (HAHA) in serum samples ([3]; human, in vivo): negative
- therapeutic response (FIG. 2) [4]: ineffective
- mice alive at 63 days after tumor injection [4, 10]: 2 of 10

Molecule: hLL1-P2PDox
- effect on tumors, one treatment cycle [2]: little effect on tumor progression
- signs of toxicity (weight loss) ([5]; 25 μg i.v. q4dx4): no signs of toxicity
- potency compared with 2-PDox conjugate of hLL1 in MTD study ([5]; not shown): much more potent
- MTD for fractionated dosing ([5]; protein dose, every 4 days for 2 weeks (q4dx4), after analysis and repetition of the experiment): 45 µg
- MTD for multiple injections ([5]; q4dx4, from this experiment): 25 µg
- dose tolerated when administered as a single injection ([5]; single injection (not shown)): 100 µg
- protection by control conjugates [6]: None of the P2PDox-conjugated control antibodies (hLL1 or hRS7) provide any protection

Molecule: hMN-14-P2PDox
- cytotoxicity [7]: cytotoxic
- effect on tumors, one treatment cycle [2]: little effect on tumor progression

Molecule: hRS7 IgG: unconjugated humanized anti-TROP-2 antibody
- specific lysis (ADCC) [8]: 8.5%

Molecule: hRS7-SN-38 [reference compound]
- therapeutic response (FIG. 3) [2]: better therapeutic responses
- therapeutic response (FIG. 2) [4]: better therapeutic responses

B1: hPAM4-P2PDox (conjugate, chains of the INN, looked up)
VH: QVQLQQSGAEVKKPGASVKVSCEASGYTFPSYVLHWVKQAPGQGLEWIGYINPYNDGTQYNEKFKGKATLTRDTSINTAYMELSRLRSDDTAVYYCARGFGGSYGFAYWGQGTLVTVSS
VL: DIQLTQSPSSLSASVGDRVTMTCSASSSVSSSYLYWYQQKPGKAPKLWIYSTSNLASGVPARFSGSGSGTDFTLTISSLQPEDSASYFCHQWNRYPYTFGGGTRLEIK
modifications: P2PDox (pro-2-pyrrolinodoxorubicin) payload
- shrinkage of the sum of the 3 target lesions in the liver ([9]; 120 mg every other week, CT at 8 weeks): 18%
- reduction of CA19-9 blood titer ([9]; baseline value of 12,400): 55%
- hematological toxicity after the first course ([9]; recovers before the second course): Grade 3 neutropenia
- inhibition of tumor growth compared with the SN-38 conjugate of the same antibody ([4]; not shown): more effective at inhibiting growth
- mice alive at 63 days after tumor injection [4, 10]: 10 of 10

B2: hPAM4-SN-38: hPAM4 antibody conjugated to SN-38 (conjugate, chains of the INN, looked up)
VH: QVQLQQSGAEVKKPGASVKVSCEASGYTFPSYVLHWVKQAPGQGLEWIGYINPYNDGTQYNEKFKGKATLTRDTSINTAYMELSRLRSDDTAVYYCARGFGGSYGFAYWGQGTLVTVSS
VL: DIQLTQSPSSLSASVGDRVTMTCSASSSVSSSYLYWYQQKPGKAPKLWIYSTSNLASGVPARFSGSGSGTDFTLTISSLQPEDSASYFCHQWNRYPYTFGGGTRLEIK
modifications: SN-38 conjugate
- mice alive at 63 days after tumor injection ([4]; twice weekly×4 weeks with 250 μg): 0 of 10
